Measured values published in patent publication US11306064B2, “Benzothia(di)azepine compounds and their use as bile acid modulators” (Albireo AB, priority 2018, dated 2022).

Columns and labels:
Human LBAT = molecular target: T1, Human LBAT (Homo sapiens, UniProt Q14973); assay: LBAT (h/m) assay: 3H-taurocholic acid uptake in human LBAT-overexpressing cells; type: cell-based; conditions: 0.3 μM 3H-taurocholic acid and 7.5 μM cold taurocholic acid, 20 minutes, read-out: hLBAT IC50
T1 construct: expressed in transfected cells; kept under Geneticin selection
T1 sequence (Q14973 1-349): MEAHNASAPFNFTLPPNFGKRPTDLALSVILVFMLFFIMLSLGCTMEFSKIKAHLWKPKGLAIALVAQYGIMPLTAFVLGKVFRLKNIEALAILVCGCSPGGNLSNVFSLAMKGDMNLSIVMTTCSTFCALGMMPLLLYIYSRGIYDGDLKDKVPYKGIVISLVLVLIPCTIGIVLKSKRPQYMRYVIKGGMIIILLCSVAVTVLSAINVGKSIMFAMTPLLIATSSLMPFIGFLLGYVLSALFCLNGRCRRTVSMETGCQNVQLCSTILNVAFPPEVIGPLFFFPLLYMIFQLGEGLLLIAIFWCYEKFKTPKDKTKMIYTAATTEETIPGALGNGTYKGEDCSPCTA
Method: LBAT (h/m) Assay Protocol
20,000 cells (Human or Mouse LBAT-overexpressing cells) were seeded in 96-wells plate (Corning CLS3809) in 100 μL MEM-alpha medium (Gibco 12571-063) supplemented with 10% FBS (Gibco 10438026) containing Geneticin (Gibco 10131-027) (1 mg/mL) and incubated at 37° C. in 5% CO2 for 24 hours. After incubation, media was decanted from the wells and cells were washed two times with 300 μL of basal MEM-alpha medium (FBS-free). After decanting basal MEM-alpha medium each time, plates were tapped against paper towel to ensure maximum removal of residual media. For human LBAT, incubation mix was prepared by adding test inhibitor dilutions (3-fold serial dilution in DMSO (Sigma D2650), 10 points) in MEM-alpha (without FBS) containing 0.3 μM 3H-taurocholic acid (ARC ART-1368) and 7.5 μM cold taurocholic acid (Sigma T4009) (maintaining 0.2% final DMSO concentration). For mouse LBAT, incubation mix was prepared by adding test inhibitor dilutions (3-fold serial dilution in DMSO, 10 points) in MEM-alpha (without FBS) containing 0.3 μM 3H-taurocholic acid and 25 μM cold taurocholic acid maintaining 0.2% final DMSO concentration).
50 μL of incubation mix containing test inhibitors was then added to the wells (in duplicate) and the plates were incubated for 20 minutes in a CO2 incubator at 37° C. After incubation, the reaction was stopped by keeping the plates on ice water mix for 2-3 minutes and then the incubation mix was aspirated completely from the wells. The wells were washed two times with 250 μL of chilled unlabelled 1 mM taurocholic acid dissolved in HEPES (Gibco 15630080)-buffered (10 mM) HBSS (Gibco 14175079) (pH 7.4). The plates were tapped against a paper towel after every wash to ensure maximum removal of blocking buffer.
(§1) 100 μL of MicroScint-20 (PerkinElmer 6013621) was added to the wells and kept overnight at room temperature before reading the plates in TopCount NXT™ Microplate Scintillation and Luminescence Counter from PerkinElmer under 3H Test protocol (set at 120 seconds reading time per well, with normal plate orientation).
(§2) Preparation of Test Compound Dilutions
(§3) All test compounds were provided in powder form at room temperature. 10 mM DMSO stocks of the test compounds were prepared, aliquoted and stored at −20° C. From the 10 mM DMSO stock of the compounds, a 3-fold serial dilution in DMSO was prepared to get a total of 10 dilutions of the test compounds. 0.5 μL of this dilution in DMSO was added to 250 μL of FBS-free basal media containing 3H-taurocholic acid and cold taurocholic acid to prepare the incubation mixture.

HepaRG cells = assay: HepaRG-based assay: 3H-taurocholic acid uptake in differentiated HepaRG cells; type: cell-based; conditions: Homo sapiens, HepaRG, 0.3 μM 3H-taurocholic acid and 7.5 μM cold taurocholic acid, 30 minutes
Method: HepaRG-Based Assay Protocol
A cryopreserved vial of differentiated HepaRG cells (Biopredic International HPR116080) was thawed in HepaRG Thawing/Plating/General Purpose Medium (Biopredic International ADD670C) supplemented with 200 mM Glutamax (Gibco 35050061) following the protocol provided by Biopredic International. 70,000 cells per well were seeded in 96-wells plate (Corning CLS3809) in 100 μL of HepaRG Thawing/Plating/General Purpose Medium supplemented with 200 mM Glutamax and incubated at 37° C. in 5% CO2 for 24 hours. Post incubation, the seeding media was replaced by HepaRG Maintenance/Metabolism Medium (Biopredic International ADD620C) and incubated for 6 days, with fresh HepaRG Maintenance/Metabolism Medium replenishment every 48 hours. After 7 days incubation post seeding, incubation media was decanted from the wells and cells were washed two times with 250 μL of William's E Basal Media (Gibco 12551032). After decanting William's E Basal Media each time, plates were tapped against paper towel to ensure maximum removal of residual media.
Incubation mix was prepared by adding test inhibitor dilutions (3-fold serial dilution in DMSO (Sigma D2650)) in William's E media (basal) containing 0.3 μM 3H-taurocholic acid (ARC ART-1368) and 7.5 μM cold taurocholic acid (Sigma T4009) (maintaining 0.2% final DMSO concentration). 50 μl of incubation mix containing test inhibitors was then added to the wells (in duplicate) and the plates were incubated for 30 minutes in 5% CO2 incubator at 37° C. After incubation, the reaction was stopped by keeping the plates on ice water mix for 2-3 minutes and then the incubation mix was aspirated completely from the wells. The wells were washed two times with 250 μL of chilled unlabelled 1 mM taurocholic acid dissolved in HEPES (Gibco 15630080)-buffered (10 mM) HBSS (Gibco 14175079) (pH 7.4). The plates were tapped against a paper towel after every wash to ensure maximum removal of blocking buffer.
as §1, §2, §3

| Structure (SMILES) | IC50 (Human LBAT) | IC50 (HepaRG cells) |
| --- | --- | --- |
| CCCCC1(CCCC)CN(c2ccc(NC(=O)CC(C)(C)C)cc2)c2cc(SC)c(O/C=C/C(=O)O)cc2S(=O)(=O)C1 [Example 30, (E)-3-((3,3-dibutyl-5-(4-(3,3-dimethylbutanamido)phenyl)-7-(methylthio)-1,1-dioxido-2,3,4,5-tetrahydro-1,5-benzothiazepin-8-yl)oxy)acrylic Acid] | 107 nM | 336 nM |
| CCCCC1(CCCC)CN(c2ccc(NC(=O)C(C)C)cc2)c2cc(SC)c(O/C=C(\F)C(=O)O)cc2S(=O)(=O)C1 [Example 31, (Z)-3-((3,3-dibutyl-5-(4-isobutyramidophenyl)-7-(methylthio)-1,1-dioxido-2,3,4,5-tetrahydro-1,5-benzothiazepin-8-yl)oxy)-2-fluoroacrylic Acid] | 17 nM | 310 nM |
| CCCCC1(CCCC)CN(c2ccc(NC(=O)C(C)C)cc2)c2cc(SC)c(O/C=C/C(=O)O)cc2S(=O)(=O)C1 [Example 33, (E)-3-((3,3-dibutyl-5-(4-isobutyramidophenyl)-7-(methylthio)-1,1-dioxido-2,3,4,5-tetrahydro-1,5-benzothiazepin-8-yl)oxy)acrylic Acid] | 214 nM | 691 nM |
| CCCCC1(CC)CN(c2ccc(NC(=O)C(C)(C)C)cc2)c2cc(SC)c(O/C=C/C(=O)O)cc2S(=O)(=O)C1 (stereo not shown) [Example 34, (E)-3-((3-butyl-3-ethyl-7-(methylthio)-1,1-dioxido-5-(4-pivalamidophenyl)-2,3,4,5-tetrahydro-1,5-benzothiazepin-8-yl)oxy)acrylic Acid] | 76 nM | 469 nM |

Further lines, results first:

| IC50 (Human LBAT) | IC50 (HepaRG cells) | Structure (SMILES) |
| --- | --- | --- |
| 66 nM | 590 nM | CCCCC1(CCCC)CN(c2ccc(NC(=O)C3CCCC3)cc2)c2cc(SC)c(O/C=C(\F)C(=O)O)cc2S(=O)(=O)C1 [Example 35, (Z)-3-((3,3-dibutyl-5-(4-(cyclopentanecarboxamido)phenyl)-7-(methylthio)-1,1-dioxido-2,3,4,5-tetrahydro-1,5-benzothiazepin-8-yl)oxy)-2-fluoroacrylic Acid] |
| 39 nM | 877 nM | CCCCC1(CCCC)CN(c2ccc(NC(=O)C3CC3)cc2)c2cc(SC)c(O/C=C(\F)C(=O)O)cc2S(=O)(=O)C1 [Example 36, (Z)-3-((3,3-dibutyl-5-(4-(cyclopropanecarboxamido)phenyl)-7-(methylthio)-1,1-dioxido-2,3,4,5-tetrahydro-1,5-benzothiazepin-8-yl)oxy)-2-fluoroacrylic Acid] |
| 122 nM | 454 nM | CCCCC1(CC)CN(c2ccc(NC(=O)C3CCCC3)cc2)c2cc(SC)c(O/C=C/C(=O)O)cc2S(=O)(=O)C1 (stereo not shown) [Example 38, (E)-3-((3-butyl-5-(4-(cyclopentanecarboxamido)phenyl)-3-ethyl-7-(methylthio)-1,1-dioxido-2,3,4,5-tetrahydro-1,5-benzothiazepin-8-yl)oxy)acrylic Acid] |
| 84 nM | 191 nM | CCC1(CC)CN(c2ccc(NC(=O)C(C)(C)C)cc2)c2cc(SC)c(O/C=C(\F)C(=O)O)cc2S(=O)(=O)C1 [Example 52, (Z)-3-((3,3-diethyl-7-(methylthio)-1,1-dioxido-5-(4-pivalamidophenyl)-2,3,4,5-tetrahydro-1,5-benzothiazepin-8-yl)oxy)-2-fluoroacrylic Acid] |
